Read-outs that look alike come from different tables or passages of the source.
Experiments:
[1] = system: MCF7 breast cancer cell line; assay: MTT cytotoxicity assay, MCF7; settings: MCF7, MTT
Experimental: (§1) The MTT test was used to evaluate the inhibitory effects of the substances on cell proliferation in the aforementioned cell lines. This colorimetric assay targets the mitochondrial succinate dehydrogenase of living cells to change yellow tetrazolium bromide (MTT) to a purple formazan derivative. […] Then, the cells were incubated for 24 h and exposed to various chemical concentrations. 20 μL of a 5 mg/mL MTT solution was applied after a 24-h drug treatment period and incubated for 4 h. To dissolve the produced purple formazan, each well receives 100 μL of dimethyl sulfoxide (DMSO). […] The formula for calculating the relative percentage of cell viability was (A570 of treated samples/A570 of the untreated sample) × 100.
The newly prepared compounds were screened against three cancer cell lines: namely, breast cancer cell line MCF7, non-small cell lung cancer (NSCLC) cell line A549, and renal cancer cell line A498, using the MTT colorimetric assay.

[2] = target: human topoisomerase II (Homo sapiens, UniProt P11388); assay: DNA Topo II inhibition (kDNA decatenation) assay; assay type: biochemical; settings: for IC50: kDNA decatenation, four concentrations 0.1-100 µM, mean ± SD of two independent assays
Experimental: The ATP-dependent decatenation of kinetoplast DNA (kDNA) obtained from Crithidia fasciculata, which consists of a network of numerous minicircles (2.3 Kb) and some maxicircles, was used to measure topoisomerase II inhibition. Reactions took place in 20 μL and comprised topoisomerase II, 200–300 ng of kDNA, and 120 mM KCl with 50 mM Tris-HCl, pH 8, 10 mM MgCl2, 0.5 mM ATP, and 0.5 mM dithiothreitol. In preliminary tests, the quantity of topoisomerase II (5 units) was changed to decatenate almost 100% of the kDNA under these assay circumstances. […] The products in the reaction mixture were separated by a 1% agarose gel after the reaction was complete and then could be seen after being stained with ethidium bromide (0.2 μg/mL). The gels were run at 100 V for about 40 min and visualised under UV transillumination.
This assay is based on the fact that human Topo II can decatenate interlinked double-stranded DNA molecules.

[3] = system: A498 renal cell carcinoma cell line; assay: MTT cytotoxicity assay, A498; settings: Homo sapiens, A498, 24 h
Experimental: as §1

[4] = system: A549 non-small cell lung cancer (NSCLC) cell line; assay: MTT cytotoxicity assay, A549; settings: Homo sapiens, A549, 24 h
Experimental: as §1

[5] = read-out: Cytotoxicity IC50 A498± SD, MTT, A498, 24 h treatment, mean ± SD of two independent assays
[6] = read-out: Cytotoxicity IC50 A549± SD, MTT, A549, 24 h treatment, mean ± SD of two independent assays

human topoisomerase II, sequence (P11388 whole entry): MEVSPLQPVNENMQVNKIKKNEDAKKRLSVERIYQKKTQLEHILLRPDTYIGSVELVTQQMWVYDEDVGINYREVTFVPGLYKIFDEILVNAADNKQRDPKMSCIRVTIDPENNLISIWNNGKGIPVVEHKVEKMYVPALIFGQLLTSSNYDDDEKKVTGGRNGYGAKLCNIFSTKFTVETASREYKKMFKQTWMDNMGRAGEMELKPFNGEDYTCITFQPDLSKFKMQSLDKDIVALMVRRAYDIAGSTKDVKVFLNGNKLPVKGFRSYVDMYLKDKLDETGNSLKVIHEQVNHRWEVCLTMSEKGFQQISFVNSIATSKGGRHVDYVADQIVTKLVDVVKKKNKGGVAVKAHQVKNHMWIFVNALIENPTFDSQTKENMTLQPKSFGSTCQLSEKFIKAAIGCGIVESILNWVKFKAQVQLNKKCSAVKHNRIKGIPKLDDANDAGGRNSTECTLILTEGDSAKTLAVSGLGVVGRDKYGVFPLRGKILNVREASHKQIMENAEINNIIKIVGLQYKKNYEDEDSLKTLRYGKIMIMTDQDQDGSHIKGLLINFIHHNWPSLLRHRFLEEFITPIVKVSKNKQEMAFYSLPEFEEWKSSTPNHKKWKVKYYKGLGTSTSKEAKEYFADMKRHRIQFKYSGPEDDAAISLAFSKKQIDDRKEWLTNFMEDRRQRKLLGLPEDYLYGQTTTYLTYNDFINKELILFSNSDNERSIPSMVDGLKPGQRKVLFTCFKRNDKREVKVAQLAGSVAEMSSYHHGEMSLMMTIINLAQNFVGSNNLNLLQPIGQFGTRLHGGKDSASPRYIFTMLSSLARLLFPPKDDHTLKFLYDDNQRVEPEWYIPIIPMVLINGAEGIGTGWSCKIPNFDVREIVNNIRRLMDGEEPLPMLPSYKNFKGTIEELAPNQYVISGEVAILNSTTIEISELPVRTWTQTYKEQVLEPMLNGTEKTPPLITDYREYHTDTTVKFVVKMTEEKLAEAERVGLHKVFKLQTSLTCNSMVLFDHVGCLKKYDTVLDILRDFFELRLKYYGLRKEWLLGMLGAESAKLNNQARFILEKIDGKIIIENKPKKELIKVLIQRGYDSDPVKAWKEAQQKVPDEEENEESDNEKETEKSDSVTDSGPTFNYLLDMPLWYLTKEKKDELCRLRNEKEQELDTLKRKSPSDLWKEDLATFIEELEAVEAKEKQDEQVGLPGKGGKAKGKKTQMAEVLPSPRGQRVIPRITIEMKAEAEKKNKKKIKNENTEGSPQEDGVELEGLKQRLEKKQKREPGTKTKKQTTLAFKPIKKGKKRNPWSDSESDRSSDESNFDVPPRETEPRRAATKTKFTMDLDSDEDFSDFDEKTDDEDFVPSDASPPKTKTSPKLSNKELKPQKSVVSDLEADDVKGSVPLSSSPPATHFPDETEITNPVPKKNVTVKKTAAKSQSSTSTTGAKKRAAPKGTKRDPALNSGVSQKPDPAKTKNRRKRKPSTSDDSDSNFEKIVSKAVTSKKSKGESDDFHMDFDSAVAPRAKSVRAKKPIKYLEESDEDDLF

| Compound | melting point | %inh TOPO II ([2]; conc 0.1 (μM)) | %inh TOPO II ([2]; conc 1 (μM)) | %inh TOPO II ([2]; conc 10 (μM)) | %inh TOPO II ([2]; conc 100 (μM)) | IC50 [2] | IC50 [3, 5] | IC50 [4, 6] | other results |
| --- | --- | --- | --- | --- | --- | --- | --- | --- | --- |
| CCOC(=O)C1=C(C)N=C2SC=C(NC(=O)c3ccc(Cl)cc3)N2C1c1ccc(OC)cc1OC (stereo not shown) [Compound 4a, Ethyl 3–(4-chlorobenzamido)-5–(2,4-dimethoxyphenyl)-7-methyl-5H-thiazolo[3,2-a]pyrimidine-6-carboxylate] | 150 to 152 °C |  |  |  |  |  |  |  |  |
| ethyl 4–(2,4-dimethoxyphenyl)-6-methyl-2-thioxo-1,2,3,6-tetrahydropyrimidine-5-carboxylate [Compound 1] |  |  |  |  |  |  |  |  | % viability ([1]; 0.4ug): 81.002%; % viability ([1]; 1.6ug): 67.624%; % viability ([1]; 6.3ug): 61.271%; % viability ([1]; 25ug): 51.07%; % viability ([1]; 100ug): 44.533% |
| CCOC(=O)C1=C(C)N=C2SC=C(NC(=O)CN3CCOCC3)N2C1c1ccc(OC)cc1OC (stereo not shown) [Compound 6b] |  | 28% | 44% | 67% | 88% | 1510 ± 90 nM | 10 nM | 6 nM |  |
| CCOC(=O)C1=C(C)N=c2sc(=Cc3ccc(OC)cc3)c(=O)n2C1c1ccc(OC)cc1OC (stereo not shown) [Compound 3b, Ethyl 5–(2,4-dimethoxyphenyl)-2–(4-methoxybenzylidene)-7-methyl-3-oxo-2,3-dihydro-5H-thiazolo[3,2-a]pyrimidine-6-carboxylate] | 175 to 177 °C | 19% | 30% | 48% | 80% | 6140 ± 360 nM | 46 nM | 24 nM |  |
| CCOC(=O)C1=C(C)N=C2SC=C(NC(=O)CN3CCN(CC)CC3)N2C1c1ccc(OC)cc1OC (stereo not shown) [Compound 6a] |  | 26% | 42% | 67% | 83% | 1880 ± 110 nM | 2 nM | 8 nM |  |
| Ethyl 5–(2,4-dimethoxyphenyl)-7-methyl-3-((2-oxo-2-(piperazin-1-yl)ethyl)amino)-5H-thiazolo[3,2-a]pyrimidine-6-carboxylate [Compound 6c] |  |  |  |  |  |  |  |  | % viability ([1]; 0.4ug): 77.067%; % viability ([1]; 1.6ug): 70.045%; % viability ([1]; 6.3ug): 60.702%; % viability ([1]; 25ug): 51.13%; % viability ([1]; 100ug): 43.771% |
| COc1cccc2c1C(=O)c1c(O)c3c(c(O)c1C2=O)C[C@@](O)(C(=O)CO)C[C@@H]3O[C@H]1C[C@H](N)[C@H](O)[C@H](C)O1 [Doxorubicin, reference compound] |  | 30% | 51% | 77% | 90% |  |  |  | IC50 ([3]; read-out: Cytotoxicity IC50 A498± SD): 7 nM; IC50 ([4]; read-out: Cytotoxicity IC50 A549± SD): 13 nM |
| CCOC(=O)C1=C(C)N=C2SC=C(N)N2C1c1ccc(OC)cc1OC (stereo not shown) [Compound 2, ethyl 3-amino-5–(2,4-dimethoxyphenyl)-7-methyl-5H-thiazolo[3,2-a] pyrimidine-6-carboxylate] | 172 to 174 °C |  |  |  |  |  | 332 nM | 23 nM |  |
| CCOC(=O)C1=C(C)N=C2SCC(=O)N2C1c1ccc(OC)cc1OC (stereo not shown) [Compound 3a, Ethyl 5–(2,4-dimethoxyphenyl)-7-methyl-3-oxo-3,5-dihydro-5H-thiazolo[3,2-a] pyrimidine-6-carboxylate] | 195 to 197 °C |  |  |  |  |  | 73 nM | 93 nM |  |
| CCOC(=O)C1=C(C)N=c2sc(=Cc3ccc(OC)cc3OC)c(=O)n2C1c1ccc(OC)cc1OC (stereo not shown) [Compound 3c, Ethyl 2–(2,4-dimethoxybenzylidene)-5–(2,4-dimethoxyphenyl)-7-methyl-3-oxo-2,3-dihydro-5H-thiazolo[3,2-a]pyrimidine-6-carboxylate] |  | 31% | 45% | 63% | 89% | 1390 ± 80 nM | 9 nM | 19 nM |  |
| CCOC(=O)C1=C(C)N=C2SC=C(NC(=O)Nc3ccc(Cl)cc3)N2C1c1ccc(OC)cc1OC (stereo not shown) [Compound 7a, Ethyl 3–(3-(4-chlorophenyl)ureido)-5–(2,4-dimethoxyphenyl)-7-methyl-5H-thiazolo[3,2-a]pyrimidine-6-carboxylate] |  | 20% | 34% | 57% | 84% | 3560 ± 210 nM |  |  |  |
| CCOC(=O)C1=C(C)N=C2SC=C(NC(=O)CCl)N2C1c1ccc(OC)cc1OC (stereo not shown) [Compound 5, ethyl 3–(2-chloroacetamido)-5–(2,4-dimethoxyphenyl)-7-methyl-5H-thiazolo[3,2-a]pyrimidine-6-carboxylate] | 150 to 152 °C |  |  |  |  |  |  |  |  |
| CCOC(=O)C1=C(C)N=c2sc(=Cc3cc(OC)c(OC)c(OC)c3)c(=O)n2C1c1ccc(OC)cc1OC (stereo not shown) [Compound 3d, Ethyl 5–(2,4-dimethoxyphenyl)-7-methyl-3-oxo-2–(3,4,5-trimethoxybenzylidene)-2,3-dihydro-5H-thiazolo[3,2-a]pyrimidine-6-carboxylate] | 190 to 192 °C | 28% | 41% | 59% | 85% | 2210 ± 130 nM | 4 nM | 12 nM |  |
| CCOC(=O)C1=C(C)N=C2SC=C(NC(=O)Nc3ccc(Cl)c(C(F)(F)F)c3)N2C1c1ccc(OC)cc1OC (stereo not shown) [Compound 7b, Ethyl 3–(3-(4-chloro-3-(trifluoromethyl)phenyl)ureido)-5–(2,4-dimethoxyphenyl)-7-methyl-5H-thiazolo[3,2-a]pyrimidine-6-carboxylate] |  | 28% | 52% | 71% | 88% | 1050 ± 60 nM | 9 nM | 19 nM |  |

Reference: paper PMC9930781, “Design, synthesis, docking, and anticancer evaluations of new thiazolo[3,2-a] pyrimidines as topoisomerase II inhibitors” (Journal of Enzyme Inhibition and Medicinal Chemistry, 2023)
